Experimental findings from patent US11524955B2, “2,4-diamino-pyrimidine compounds and method for making and using the compounds” (Rigel Pharmaceuticals, Inc., priority 2016, dated 2022) are described below.

The target of one test is T1, IRAK4 (Homo sapiens, UniProt Q9NWZ3).
T1 sequence (Q9NWZ3 1-460): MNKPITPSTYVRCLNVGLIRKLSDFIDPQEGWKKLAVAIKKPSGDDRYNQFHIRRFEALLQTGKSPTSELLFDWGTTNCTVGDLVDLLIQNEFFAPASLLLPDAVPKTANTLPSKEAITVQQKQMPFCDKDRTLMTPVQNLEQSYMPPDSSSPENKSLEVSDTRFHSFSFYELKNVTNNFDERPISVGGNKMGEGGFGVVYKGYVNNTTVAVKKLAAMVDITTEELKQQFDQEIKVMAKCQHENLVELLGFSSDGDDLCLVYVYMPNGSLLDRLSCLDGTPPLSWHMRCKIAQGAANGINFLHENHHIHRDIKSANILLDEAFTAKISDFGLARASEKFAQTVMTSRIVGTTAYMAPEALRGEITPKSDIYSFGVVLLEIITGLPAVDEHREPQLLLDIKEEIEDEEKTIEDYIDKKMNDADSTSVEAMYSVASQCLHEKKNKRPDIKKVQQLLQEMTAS
The test is described as follows: IRAK4 biochemical assay, ADP-Glo kinase assay. As to conditions: for Selectivity (TAK1/IRAK4): ratio of TAK1 and IRAK4 IC50. The method, then:
(§1) IRAK4 and TAK1 biochemical assays: kinase activity was measured by ADP-Glo kinase assay (Promega).
On the technique in general: ADP-Glo turns the ADP formed in a reaction into a luminescent signal.

The target of a further test is T2, TAK1 (Homo sapiens, UniProt O43318).
T2 sequence (O43318 1-303 limits assumed): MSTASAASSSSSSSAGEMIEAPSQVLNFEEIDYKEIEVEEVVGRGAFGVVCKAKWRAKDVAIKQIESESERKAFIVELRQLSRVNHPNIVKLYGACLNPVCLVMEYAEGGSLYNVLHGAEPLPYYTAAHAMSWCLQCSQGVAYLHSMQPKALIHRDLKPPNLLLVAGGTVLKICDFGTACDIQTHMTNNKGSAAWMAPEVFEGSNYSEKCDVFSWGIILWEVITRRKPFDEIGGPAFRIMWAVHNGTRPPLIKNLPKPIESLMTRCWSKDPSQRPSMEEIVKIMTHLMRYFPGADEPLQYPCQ
The test is described as follows: TAK1 biochemical assay, ADP-Glo kinase assay. The method, then: as §1

A further test deals with IL-23, THP1 cells. In words: IL-23 assay, THP1 cells primed with IFNg, LPS stimulated, ELISA. It is filed as cell-based. As to conditions: Homo sapiens, THP-1. On the procedure: (§2) IL-23 assays: THP1 cells or human primary monocyte-derived dendritic cells (DC) were primed overnight with IFNg. Following one hour preincubation with compound, cells were stimulated overnight with LPS. IL-23 released into the media was quantitated by ELISA.
(ELISA stands for enzyme-linked immunosorbent assay.)

In another test the test system is IL-23, dendritic cells. In words: IL-23 assay, human primary monocyte-derived dendritic cells, LPS stimulated, ELISA. It is filed as cell-based. As to conditions: Dendritic cell. The method, then:
as §2

The test system of another test is IL-6, HUVEC. The test is described as follows: IL-6 assay, HUVEC, ELISA. It is filed as cell-based, human. As to conditions: for IC50: Homo sapiens.
The test system of the next test is IL-8, HUVEC. In words: IL-8 assay, HUVEC, ELISA. It is filed as cell-based, human. As to conditions: for IC50: Homo sapiens.
[1] abbreviates: THP1 cells, IFNy primed, LPS stimulated, 10 pt, read-out: IL23-p19 ELISA, THP1-IFNy, LPS, 10 pt.
The mark [2] stands for this setting: read-out: IL23 (LPS induced) IC50.
Where [3] appears, read: LPS stimulated, 10 pt, read-out: IL23-P19, ELISA, Dendritic, LPS, 10 pt.
[4] abbreviates: THP cells, LPS, read-out: IL23 (THP, LPS) IC50.
[5] abbreviates: LPS, read-out: IL23 (Dentritic Cells, LPS) IC50.
Setting [6] is: read-out: IL6 (HUVEC, IL-1β) IC50.
[7] abbreviates: read-out: IL6 (HUVEC, LPS) IC50.
The mark [8] stands for this setting: read-out: IL6 (HUVEC, TNFα) IC50.
Setting [9] is: read-out: IL8 (HUVEC, IL-1β) IC50.
The mark [10] stands for this setting: read-out: IL8 (HUVEC, LPS) IC50.
Where [11] appears, read: read-out: IL8 (HUVEC, TNFα) IC50.

Like-named read-outs stand apart in the source and are kept apart here.

As to `NC(=O)[C@@H]1[C@H](Nc2nc(Nc3cccc(C(=O)N4CCCC4)c3)ncc2C2CC2)[C@H]2C=C[C@@H]1C2` [Compound 6, (1S,2S,3R,4R)-3-((5-cyclopropyl-2-((3-(pyrrolidine-1-carbonyl)phenyl)amino)pyrimidin-4-yl)amino)bicyclo[2.2.1] hept-5-ene-2-carboxamide], the IC50 on IRAK4 was 6 nM; at TAK1, 11 nM; with IL-23, THP1 cells (setting [1]), below 100 nM; in the test on IL-23, THP1 cells (setting [2]), 90 nM; in the test with IL-23, dendritic cells (setting [3]), below 100 nM.
For the compound `NC(=O)[C@@H]1[C@H](Nc2nc(Nc3cccc(C(=O)N4CCCC4)c3)ncc2-c2ccoc2)[C@H]2C=C[C@@H]1C2` [Compound 7, (1S,2S,3R,4R)-3-((5-(furan-3-yl)-2-((3-(pyrrolidine-1-carbonyl)phenyl)amino)pyrimidin-4-yl)amino)bicyclo[2.2.1] hept-5-ene-2-carboxamide], the IC50 is 2 nM against IRAK4; 11 nM against TAK1; below 100 nM in the test on IL-23, THP1 cells (setting [1]); 40 nM with IL-23, THP1 cells (setting [2]); below 100 nM in the test on IL-23, dendritic cells (setting [3]).
With `NC(=O)[C@@H]1[C@H](Nc2nc(Nc3cccc(C(=O)N4CCCC4)c3)ncc2-c2ccccc2)[C@H]2C=C[C@@H]1C2` [Compound 8, (1S,2S,3R,4R)-3-((5-phenyl-2-((3 (pyrrolidine-1-carbonyl)phenyl)amino)pyrimidin-4-yl)amino)bicyclo[2.2.1] hept-5-ene-2-carboxamide], the IC50 is 10 nM on IRAK4; 166 nM against TAK1; below 250 nM in the test with IL-23, THP1 cells (setting [1]); 220 nM in the test on IL-23, THP1 cells (setting [2]); below 1000 nM in the test with IL-23, dendritic cells (setting [3]).
Take `NC(=O)[C@@H]1[C@H](Nc2nc(Nc3cccc(C(=O)N4CCCC4)c3)ncc2-c2ccncc2)[C@H]2C=C[C@@H]1C2` [Compound 9, (1S,2S,3R,4R)-3-((5-(pyridin-4-yl)-2-((3-(pyrrolidine-1-carbonyl)phenyl)amino)pyrimidin-4-yl)amino)bicyclo[2.2.1] hept-5-ene-2-carboxamide]: the IC50 against IRAK4 is 4 nM; against TAK1, 24 nM; in the test on IL-23, THP1 cells (setting [1]), below 250 nM; in the test on IL-23, THP1 cells (setting [2]), 130 nM; in the test with IL-23, dendritic cells (setting [3]), below 250 nM. Further, at IRAK4, the “Selectivity (TAK1/IRAK4)” value was found to be 7.
On to `NC(=O)[C@@H]1[C@H](Nc2nc(Nc3cccc(C(=O)N4CCCC4)c3)ncc2-c2cccc(F)c2)[C@H]2C=C[C@@H]1C2` [Compound 11, (1S,2S,3R,4R)-3-((5-(3-fluorophenyl)-2-((3-(pyrrolidine-1-carbonyl)phenyl)amino)pyrimidin-4-yl)amino)bicyclo[2.2.1] hept-5-ene-2-carboxamide], for which the IC50 against IRAK4 is 6 nM; against TAK1 it was 106 nM; in the test on IL-23, THP1 cells (setting [1]), below 250 nM; in the test with IL-23, THP1 cells (setting [4]) it was 130 nM; in the test on IL-23, THP1 cells (setting [2]) it was 130 nM; in the test on IL-23, dendritic cells (setting [3]), below 100 nM. Also, the IC50 in the test with IL-23, dendritic cells (setting [5]) was found to be 70 nM; in the test with IL-6, HUVEC (setting [6]) it was 140 nM; in the test on IL-6, HUVEC (setting [7]) it was 130 nM; with IL-6, HUVEC (setting [8]), 1700 nM; with IL-8, HUVEC (setting [9]) it was 310 nM; with IL-8, HUVEC (setting [10]), 950 nM. The IC50 with IL-8, HUVEC (setting [11]) is 6000 nM. Besides, the “Selectivity (TAK1/IRAK4)” value at IRAK4 is reported as 17. Besides, the “Selectivity IL6 (TNFα/IL-1β)” value in the test on IL-6, HUVEC (ratio TNFα/IL-1β) was 12. In addition, in the test on IL-6, HUVEC (ratio TNFα/LPS), the “Selectivity IL6 (TNFα/LPS)” value amounted to 13. The “Selectivity IL8 (TNFα/IL-1β)” value in the test with IL-8, HUVEC (ratio TNFα/IL-1β) was found to be 18. The “Selectivity IL8 (TNFα/LPS)” value in the test with IL-8, HUVEC (ratio TNFα/LPS) amounted to 6.
For `NC(=O)[C@@H]1[C@H](Nc2nc(Nc3cccc(C(=O)N4CCCC4)c3)ncc2-c2ccc(F)cc2)[C@H]2C=C[C@@H]1C2` [Compound 12, (1S,2S,3R,4R)-3-((5-(4-fluorophenyl)-2-((3 (pyrrolidine-1-carbonyl)phenyl)amino)pyrimidin-4-yl)amino)bicyclo[2.2.1] hept-5-ene-2-carboxamide], the IC50 against IRAK4 was 19 nM; at TAK1, 670 nM; with IL-23, THP1 cells (setting [1]), below 1000 nM; with IL-23, THP1 cells (setting [2]), 460 nM; with IL-23, dendritic cells (setting [3]), above 1000 nM.
As for `N#Cc1cccc(-c2cnc(Nc3cccc(C(=O)N4CCCC4)c3)nc2N[C@H]2[C@@H](C(N)=O)[C@@H]3C=C[C@H]2C3)c1` [Compound 13, (1S,2S,3R,4R)-3-((5-(3-cyanophenyl)-2-((3-(pyrrolidine-1-carbonyl)phenyl)amino)pyrimidin-4-yl)amino)bicyclo[2.2.1] hept-5-ene-2-carboxamide], the IC50 was 13 nM against IRAK4; 105 nM at TAK1; below 1000 nM with IL-23, THP1 cells (setting [1]); 280 nM in the test with IL-23, THP1 cells (setting [2]); below 1000 nM in the test on IL-23, dendritic cells (setting [3]).
Consider `N#Cc1ccc(-c2cnc(Nc3cccc(C(=O)N4CCCC4)c3)nc2N[C@H]2[C@@H](C(N)=O)[C@@H]3C=C[C@H]2C3)cc1` [Compound 14, (1S,2S,3R,4R)-3-((5-(4-cyanophenyl)-2-((3-(pyrrolidine-1-carbonyl)phenyl)amino)pyrimidin-4-yl)amino)bicyclo[2.2.1] hept-5-ene-2-carboxamide], for which the IC50 against IRAK4 is 9 nM; against TAK1, 1600 nM; in the test on IL-23, THP1 cells (setting [1]) it was below 250 nM; with IL-23, THP1 cells (setting [2]), 190 nM; in the test with IL-23, dendritic cells (setting [3]) it was below 1000 nM.
Consider `NC(=O)[C@@H]1[C@H](Nc2nc(Nc3cccc(C(=O)N4CCCC4)c3)ncc2-c2ccnc(F)c2)[C@H]2C=C[C@@H]1C2` [Compound 16, (1S,2S,3R,4R)-3-((5-(2-fluoropyridin-4-yl)-2-((3-(pyrrolidine-1-carbonyl)phenyl)amino)pyrimidin-4-yl)amino)bicyclo[2.2.1] hept-5-ene-2-carboxamide], for which the IC50 against IRAK4 was 3 nM; at TAK1 it was 17 nM; in the test on IL-23, THP1 cells (setting [1]), below 100 nM; with IL-23, THP1 cells (setting [4]), 100 nM; with IL-23, THP1 cells (setting [2]), 100 nM; in the test on IL-23, dendritic cells (setting [3]), below 250 nM. Further, the IC50 stood at 110 nM in the test with IL-23, dendritic cells (setting [5]); 110 nM with IL-6, HUVEC (setting [6]); 120 nM with IL-6, HUVEC (setting [7]); 1200 nM with IL-6, HUVEC (setting [8]); 250 nM in the test with IL-8, HUVEC (setting [9]); 1000 nM in the test on IL-8, HUVEC (setting [10]). The IC50 with IL-8, HUVEC (setting [11]) amounted to 3000 nM.
